Measurements: US8871251B2, “Liposome and method for producing the same” (Can Heal BioMediTech Corp., priority 2008, dated 2014)

Key:
Assay in all cases: MTT assay, curcumin concentration killing 50% of cells
Type in all cases: cell-based
A549 = conditions: A549, human lung carcinoma; mean±SD (n=6); read-out: curcumin concentration required for killing 50% of the cells
Method: (§1) In this experiment, whether the liposome has the capability of carrying drugs is observed by MTT assay. First, curcumin was added into cells at different concentrations, to obtain the curcumin concentration required for killing 50% of the cells. Next, the liposome with curcumin at different concentrations (curcumin-liposome) was sent into cells of the same type respectively, to obtain the curcumin concentration required for killing 50% of the cells. In Table 1, all the concentrations are expressed as mean±standard deviation (SD) (n=6).

B16/F10 = conditions: B16/F10, mouse melanoma; mean±SD (n=6); read-out: curcumin concentration required for killing 50% of the cells
Method: as §1

CT-26 = conditions: CT26; CT-26, mouse colorectal adenocarcinoma; mean±SD (n=6); read-out: curcumin concentration required for killing 50% of the cells
Method: as §1

HT-29 = conditions: HT-29, human colorectal adenocarcinoma; mean±SD (n=6); read-out: curcumin concentration required for killing 50% of the cells
Method: as §1

HeLa = conditions: human cervical cancer, mean±SD (n=6), read-out: curcumin concentration required for killing 50% of the cells
Method: as §1

HepG2 = conditions: HepG2, human hepatocellular carcinoma; mean±SD (n=6); read-out: curcumin concentration required for killing 50% of the cells
Method: as §1

JC = conditions: mouse breast adenocarcinoma, mean±SD (n=6), read-out: curcumin concentration required for killing 50% of the cells
Method: as §1

LL-2 = conditions: LL-2, mouse lung carcinoma; mean±SD (n=6); read-out: curcumin concentration required for killing 50% of the cells
Method: as §1

COc1cc(/C=C/C(=O)CC(=O)/C=C/c2ccc(O)c(OC)c2)ccc1O [Curcumin, curcumin] was tested. Which IC50 (A549) did it give?
Its IC50 is 30 ± 9.45 µM.

What about the IC50 (B16/F10) of the same compound?
The IC50 was 8.16 ± 1.01 µM.

What about the IC50 (CT-26) of the same compound?
The IC50 was 7.92 ± 0.77 µM.

What about the IC50 (HT-29) of the same compound?
The IC50 was 12.9 ± 1.18 µM.

And the IC50 (HeLa)?
The IC50 was 17.7 ± 6.95 µM.

And the IC50 (HepG2)?
The IC50 was 12.2 ± 1.11 µM.

What about the IC50 (JC) of the same compound?
Its IC50 is 11 ± 1.47 µM.

What about the IC50 (LL-2) of the same compound?
Its IC50 is 10.8 ± 2.33 µM.
